Columns and labels:
CDK4/CyclinD1 = biological target: T1, CDK4/CyclinD1 (Homo sapiens, UniProt P11802); assay: CDK4/CyclinD1 kinase inhibitory activity (Caliper mobility shift); assay type: biochemical; settings: enzyme 20 nM, ATP 672 uM, 28° C. 30 min; read-out: CDK4/Cyclin D1 IC50
T1 construct: purchased ProQinase 0142-0143-1
Description: CDK4/CyclinD1 kinase inhibitory activity (IC50): 5 μl of various dilutions of test compound in 1× kinase buffer (20 mM HEPES, pH 7.5, 10 mM MgCl2, 2 mM DTT and 0.01% Triton X-100) was mixed with 10 μL of either CDK4/Cyclin D1 (ProQinase, 0142-0143-1 #, final concentration 20 nM in 1× Kinase buffer) or in 384 plates and incubated at room temperature for 10 min. To initiate each reaction, 10 μL of peptide solution containing fluorescently-labeled-peptide 8(5-FAM-IPTSPITTTYFFFKKK-COOH, GL, 112396 #, final concentration 3000 nM) and ATP (final concentration 672 uM for CDK4/CyclinD1) in 1×Kinase buffer was added to each of the wells containing test compound and CDK4/CyclinD1 mixture. The reaction is then allowed to proceed at 28° C. for 30 min and terminated by the addition of 25 μL stop buffer (100 mM HEPES pH 7.5, 50 mM EDTA, 0.2% Coating Reagent #3 (Perkin Elmer, 760050 #) and 0.015% Brij-35).
(§1) Following the kinase reaction, Caliper EZ reader II (Downstream voltages: −500V, Upstream voltages: −2250V, Base pressure −0.5 PSI, Screen pressure −1.2 PSI) was used to separate the phosphorylated (product) and the unphosphorylated (substrate) fluorescently-labeled peptide 8 based on their different mobility. Both substrate and product were measured and the ratio of these values were used to generate % conversion by Caliper EZ reader II. These conversion values were then transformed into % inhibition of kinase activity using the formula: % Inhibition=[(MA−X)/(MA−MI)]×100% where MA=conversion value of DMSO only controls, MI=conversion value of no enzyme controls and X=conversion value at any given compound dose. IC50 values were then calculated by plotting dose-response curves and then using the XLfit application in Excel software.

CDK6/CyclinD3 = biological target: T2, CDK6/CyclinD3 (Homo sapiens, UniProt Q00534); assay: CDK6/CyclinD3 kinase inhibitory activity (Caliper mobility shift); assay type: biochemical; settings: enzyme 15 nM, ATP 800 μM, 28° C. 30 min; read-out: CDK6/Cyclin D3 IC50
T2 construct: purchased Carna 04-107
T2 sequence (Q00534 whole entry): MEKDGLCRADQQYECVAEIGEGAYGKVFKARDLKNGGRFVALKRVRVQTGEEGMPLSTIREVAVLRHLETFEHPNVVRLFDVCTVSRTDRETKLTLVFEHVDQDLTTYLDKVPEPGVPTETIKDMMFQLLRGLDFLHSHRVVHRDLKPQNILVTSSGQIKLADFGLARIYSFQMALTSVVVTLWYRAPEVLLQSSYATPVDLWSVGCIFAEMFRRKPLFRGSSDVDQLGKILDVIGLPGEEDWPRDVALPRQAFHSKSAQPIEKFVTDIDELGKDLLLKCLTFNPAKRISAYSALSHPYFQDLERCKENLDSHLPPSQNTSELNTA
T2 sequence (P30281 whole entry partner): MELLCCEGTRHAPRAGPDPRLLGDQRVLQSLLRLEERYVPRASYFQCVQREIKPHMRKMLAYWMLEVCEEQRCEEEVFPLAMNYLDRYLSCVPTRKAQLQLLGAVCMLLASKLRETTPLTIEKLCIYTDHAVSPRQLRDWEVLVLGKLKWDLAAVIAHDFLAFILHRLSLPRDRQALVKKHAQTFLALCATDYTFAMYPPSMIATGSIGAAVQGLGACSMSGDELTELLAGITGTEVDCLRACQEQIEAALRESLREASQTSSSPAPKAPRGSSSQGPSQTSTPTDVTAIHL
Description: CDK6/CyclinD3 kinase inhibitory activity (IC50): 5 μl of various dilutions of test compound in 1× kinase buffer (50 mM HEPES pH 7.5, 10 mM MgCl2, 2 mM DTT and 0.01% Brij-35) was mixed with 10 μL of CDK6/CyclinD3 (Carna, 04-107 #, final concentration 15 nM in 1× Kinase buffer) in 384 plates and incubated at room temperature for 10 min. To initiate each reaction, 10 μL of peptide solution containing fluorescently-labeled -peptide 8(5-FAM-IPTSPITTTYFFFKKK-COOH, GL, 112396 #, final concentration 3000 nM) and ATP (final concentration 800 μM for CDK6/CyclinD3 in 1× Kinase buffer was added to each of the wells containing test compound and CDK6/CyclinD3. The reaction is then allowed to proceed at 28° C. for 30 min and terminated by the addition of 25 μL stop buffer (100 mM HEPES pH 7.5, 50 mM EDTA, 0.2% Coating Reagent #3 (Perkin Elmer, 760050 #) and 0.015% Brij-35).
as §1

T1 sequence (P11802 whole entry): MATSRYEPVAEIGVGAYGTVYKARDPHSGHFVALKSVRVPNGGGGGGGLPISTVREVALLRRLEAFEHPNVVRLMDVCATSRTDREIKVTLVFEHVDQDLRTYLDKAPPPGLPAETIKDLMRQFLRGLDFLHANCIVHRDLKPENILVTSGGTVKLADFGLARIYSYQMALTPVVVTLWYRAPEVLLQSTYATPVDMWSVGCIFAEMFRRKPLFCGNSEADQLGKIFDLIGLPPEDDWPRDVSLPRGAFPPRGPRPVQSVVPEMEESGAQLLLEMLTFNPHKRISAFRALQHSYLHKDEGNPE
T1 sequence (P24385 whole entry partner): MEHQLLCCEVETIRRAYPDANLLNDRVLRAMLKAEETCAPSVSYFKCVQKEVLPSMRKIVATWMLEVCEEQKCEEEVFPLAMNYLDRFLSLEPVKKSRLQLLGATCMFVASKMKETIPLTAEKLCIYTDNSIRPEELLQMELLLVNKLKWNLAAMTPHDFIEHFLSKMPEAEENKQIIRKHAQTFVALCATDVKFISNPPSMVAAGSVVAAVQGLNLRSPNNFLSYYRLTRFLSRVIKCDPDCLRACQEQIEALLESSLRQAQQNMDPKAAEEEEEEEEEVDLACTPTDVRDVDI

IC50 (CDK4/CyclinD1) [nM] | IC50 (CDK6/CyclinD3) [nM] | Structure (SMILES)
< 10 | 10 to 100 | [2H]c1nc(N[C@@H]2CCOC[C@H]2O)nc(-c2cc(F)c3nc(C)c(C(C)O)c(C)c3c2)c1Cl (single isomer, unassigned) [Example 85b]
10 to 100 | 100 to 1000 | Cc1nc2c(F)cc(-c3nc(N[C@@H]4CCOC[C@H]4O)ncc3Cl)cc2cc1C(C)NC1CC1 (single isomer, unassigned) [Example 73a]
10 to 100 | ≥ 1000 | CC(C)(O)c1cnc2c(F)cc(-c3nc(Nc4ccc(C(=O)CO)cn4)ncc3F)cc2c1Cl [Example 80]
10 to 100 | ≥ 1000 | CC1(C)Cc2cnc3c(F)cc(-c4nc(N[C@@H]5COC[C@H]5O)ncc4Cl)cc3c2CN1 [Example 50]
< 10 | 100 to 1000 | CCC(O)c1cc2cc(-c3nc(N[C@@H]4CCOC[C@H]4O)ncc3Cl)cc(F)c2nc1C (single isomer, unassigned) [Example 39a]
100 to 1000 | ≥ 1000 | CN1Cc2c(cnc3c(F)cc(-c4nc(N[C@@H]5CCOC[C@H]5O)ncc4Cl)cc23)C(O)C1(C)C (single isomer, unassigned) [Example 111b]
10 to 100 | 100 to 1000 | CNC(C)c1cnc2c(F)cc(-c3nc(N[C@@H]4CCOC[C@H]4O)ncc3Cl)cc2c1C (single isomer, unassigned) [Example 48b]
< 10 | 10 to 100 | CC1(O)CCc2nc3c(F)cc(-c4nc(N[C@@H]5CCOC[C@H]5O)ncc4Cl)cc3cc21 (single isomer, unassigned) [Example 38a]
10 to 100 | 100 to 1000 | Cc1c(C(C)NC2CC2)cnc2c(F)cc(-c3nc(N[C@@H]4CCOC[C@H]4O)ncc3Cl)cc12 (single isomer, unassigned) [Example 91a]
10 to 100 | 100 to 1000 | O[C@@H]1COCC[C@H]1Nc1ncc(Cl)c(-c2cc(F)c3ncc(-c4ncc[nH]4)cc3c2)n1 [Example 28]
10 to 100 | 100 to 1000 | Cc1c(C(C)NC2CC2)cnc2c(F)cc(-c3nc(N[C@@H]4CCOC[C@H]4O)ncc3F)cc12 (single isomer, unassigned) [Example 93a]
< 10 | 100 to 1000 | Cc1nc2c(F)cc(-c3nc(N[C@@H]4CCOC[C@H]4O)ncc3Cl)cc2c2c1CCNC2 [Example 33]
10 to 100 | ≥ 1000 | Cc1cc(C(C)(C)O)nc2c(F)cc(-c3nc(N[C@@H]4CCOC[C@H]4O)ncc3F)cc12 [Example 96]
< 10 | 100 to 1000 | COC1c2cnc3c(F)cc(-c4nc(N[C@@H]5CCOC[C@H]5O)ncc4F)cc3c2CNC1(C)C (single isomer, unassigned) [Example 108b]
10 to 100 | 100 to 1000 | CC(C)(O)c1cnc2ccc(-c3nc(N[C@@H]4CCOC[C@H]4O)ncc3Cl)cc2c1 [Example 6, (3S,4R)-4-((5-chloro-4-(3-(2-hydroxypropan-2-yl)quinolin-6-yl)pyrimidin-2-yl)amino)tetrahydro-2H-pyran-3-ol]
< 10 | 100 to 1000 | CC(C)(O)c1cnc2c(F)cc(-c3cc(N[C@@H]4CCOC[C@H]4O)ncc3Cl)cc2c1Cl [Example 42]
< 10 | 10 to 100 | [2H]c1nc(N[C@@H]2CCOC[C@H]2O)nc(-c2cc(F)c3nc(C)c(C(C)O)c(C)c3c2)c1Cl (single isomer, unassigned) [Example 85a]
< 10 | 100 to 1000 | [2H]C1([2H])c2cnc3c(F)cc(-c4nc(N[C@@H]5CCOC[C@H]5O)ncc4F)cc3c2CNC1(C)C [Example 110]
< 10 | 100 to 1000 | [2H]c1nc(N[C@@H]2CCOC[C@H]2O)nc(-c2cc(F)c3nc(C)c(C(C)NC4CC4)cc3c2)c1F (single isomer, unassigned) [Example 77b]
10 to 100 | 100 to 1000 | Cc1cc(C(C)(C)O)c2cc(-c3nc(N[C@@H]4CCOC[C@H]4O)ncc3Cl)cc(F)c2n1 [Example 75]
< 10 | 100 to 1000 | Cc1nc2c(F)cc(-c3nc(N[C@@H]4CCOC[C@H]4O)ncc3Cl)cc2c2c1CC1(CC1)NC2 [Example 69]
